From patent US20080199441A1, “Use of ex-vivo cultured hematopoietic cells for treatment of peripheral vascular diseases” (priority 2006, published 2008)

What was measured:
[1] = test system: cord-blood-derived, bone marrow-derived, and peripheral blood derived hematopoietic cells; conditions: grown without a feeder layer; cited from earlier work
[2] = test system: hematopoietic stem/progenitor cells (CD34+ or CD133+); assay: Ex vivo expansion of hematopoietic cells; assay type: cell-based, human; conditions: cultured with cytokines plus inhibitor, compared to cells cultured with cytokines alone
Description: Cell cultures of human hematopoietic cells: Human umbilical cord blood cells were obtained from umbilical cord blood after normal full-term delivery (informed consent was given). MPB, or BM were obtained from donations (informed consent was given). Samples were either used fresh or collected and frozen according to well known cord blood cryopreservation protocol (Rubinstein et al. 1995) within 24 hours postpartum for UCB or according to common practice regarding MPB and BM. Prior to cryopreservation, blood was sedimented for 30 minutes on […] Starch (hydroxyethyl starch) to remove most RBC. Prior to their use, the cells were thawed in Dextran buffer (Sigma, St. Louis, Mo., USA) containing 2.5% human serum albumin (HSA)(Bayer Corp. Elkhart, Ind., USA) and processed as described herein below. Following thawing, where indicated, the leukocyte-rich fraction was harvested and layered on Ficoll-Hypaque gradient (1.077 g/mL; Sigma Inc, St Louis Mo., USA), and centrifuged at 400×g for 30 minutes. The mononuclear cell fraction in the interface layer was then collected, washed three times, and re-suspended in phosphate-buffered saline (PBS) (Biological Industries, Bet HaEmek, Israel) containing 0.5% human serum albumin (HSA) (Bayer Corp. Elkhart, Ind., USA). […] The purity of the CD133^+ populations thus obtained was 80-95%, as evaluated by flow cytometry. […]

**Q.** For `NCCNCCNCCNCCN` [TEPA, tetraethylpentamine], which “fraction of CD34+ cells and long-term clonability” value [1] is on record?
**A.** greatly enhanced the fraction of CD34^+ cell and their long-term clonability

**Q.** Which “enrichment of stem/early progenitor cell subsets (CD34+CD38− and CD34+Lin−) in cultured population” value [2] does the source give for `NC(=O)c1cccnc1` [nicotinamide] here?
**A.** enriched with subsets of stem/early progenitor cells
